Results reported in PubChem BioAssay AID1963853 (Molecular Pharmacology Branch, DTP, NCI, 2024).
Values joined by “and” are separate entries in the source; they are usually repeats but may differ in a detail not shown here. Equal entries are not always repeated.

Tested on: 266295-075-R-J1-PDC spheroid viability
Experiment: Anticancer human tumor 266295-075-R-J1-PDC patient-derived head and neck squamous carcinoma cell line growth inhibition [POLQ]
Details: spheroids with HUVEC and MSC; for viability, T/C: stronger effect = lower value
Procedure: Multicellular complex tumor spheroid response to Polymerase (POL) inhibitors (novobiocin, ART-558, RP6685) in combination with a variety of drugs and investigational agents in selected tumor cell lines
The POL inhibitors (novobiocin, ART-558, and RP6685) were evaluated both individually and in combination with standard of care and investigational anticancer small molecules within a complex spheroid model of solid tumors. . Complex spheroids include a stromal component modeled by human endothelial cells (HUVEC) and fibroblasts modeled by human mesenchymal stem cells (MSCs). The concentration ranges selected for each drug and investigational agent were based upon clinically achievable concentrations if the clinical Cmax of the agent was known.
Compounds. The drugs and investigational agents: novobiocin (NSC847541), ART-558 (NSC835418), RP-6685 (NSC848927), peposertib (NSC802822), ceralasertib (NSC780249), elimusertib (NSC800525), camonsertib (NSC841442), AZD-1390 (NSC803789), olaparib (NSC753686), talazoparib (NSC767125), rucaparib (NSC756644), sotorasib (NSC818433), MRTX-1133 (NSC836407), SN-38 (NSC673596), topotecan (NSC609699), epotoside (NSC141540), doxorubicin (NSC123127), gemcitabine (NSC613327), 5-fluorouracil (NSC19893), paclitaxel (NSC125973), vemurafenib (NSC761431), MSA-2 (NSC828583), SN-011 (NSC837082), adavosertib (NSC754352), prexasertib (NSC758257), carboplatin (NSC241240) and oxaliplatin (NSC266046), were obtained from the National Cancer Institute (NCI) Developmental Therapeutics Program Chemical Repository (21). The FDA-approved anticancer drug set is available from the Developmental Therapeutics Program at https://dtp.cancer.gov/organization/dscb/obtaining/. […] The stock solutions were prepared in dimethyl sulfoxide (DMSO, Sigma-Aldrich, St. Louis, MO, cat. D2650), except for the platinum compounds which were prepared in saline (Quality Biological, Gaithersburg, MD, cat. 114-055-101), at 800-fold the tested concentration and stored at -70 degrees C prior to their use. All drugs and investigational agents were tested over a range starting from a high concentration at or near the clinical Cmax and decreasing in half-log increments. If the clinical Cmax for an agent had not been determined, the highest concentration tested was 10 microM, except for SN-38, which was tested at a high concentration of 1 microM.
Cell Culture. All cells were maintained in an incubator at 37 degrees C and 5% CO2 with 95% humidity. The PDC lines were cultured according to standard operating procedures established by the NCI PDMR (https://pdmr.cancer.gov). Table 3 of the manuscript, lists the cell lines along with the number of the three cell types plated to form the mct-spheroids and media for tumor cell growth. After thawing, all PDC lines, except 997537-175-T-J1-PDC and 415267-285-R-J2-PDC, were cultured in Matrigel-coated flasks prepared with a working solution of 1X Ham's F-12 nutrient mix, without supplementation (Thermo Fisher Scientific, cat. 11765054), 100 U/mL penicillin-streptomycin (Thermo Fisher Scientific, cat. 15140122), and 2.5% Matrigel (Corning Inc., Corning, NY, cat. 354248) for the first three passages. The two PDC lines 997537-175-T-J1-PDC and 415267-285-R-J2-PDC were cultured on uncoated flasks. The 857933-349-R-J2-PDC line was cultured in 6C/Colon 1B media containing advanced DMEM/F-12 (Thermo Fisher Scientific, cat. 12634028), 10 mM HEPES (Thermo Fisher Scientific, cat. 15630080), 1X GlutaMAX supplement (Thermo Fisher Scientific, cat. 35050061), 0.1 mg/mL primocin (InvivoGen, San Diego, CA, cat. ant-pm-2), 10% defined fetal bovine serum, heat inactivated (HyClone Laboratories Inc., Logan, UT, cat. SH30070.03HI), 50% L-WRN conditioned media (ATCC, cat. CRL-3276), 1.25 mM N-Acetyl-L-cysteine (Sigma-Aldrich, cat. A9165), 10 mM nicotinamide (Sigma-Aldrich, cat. N0636), 1X B-27 supplement (Thermo Fisher Scientific, cat. 17504044), 1X N-2 supplement (Thermo Fisher Scientific, cat. […]
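Note: spheroids exposed to compounds for seven days before readout.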

## C#Cc1c(F)ccc2cc(O)cc(-c3ncc4c(N5CC6CCC(C5)N6)nc(OCC56CCCN5CC(F)C6)nc4c3F)c12 (configuration not stated) + COC1C(OC(N)=O)C(O)C(Oc2ccc3c(O)c(NC(=O)c4ccc(O)c(CC=C(C)C)c4)c(=O)oc3c2C)OC1(C)C
Curve of first compound, second compound 0.0316 µM
  IC50: > 10 µM
Curve of first compound, second compound 0.1 µM
  IC50: > 10 µM
Curve of first compound, second compound 0.316 µM
  IC50: > 10 µM
Curve of first compound, second compound 1 µM
  IC50: > 10 µM
Curve of first compound, second compound 3.16 µM
  IC50: > 10 µM
Curve of first compound, second compound 10 µM
  IC50: > 10 µM
Second compound 0.0316 µM, first compound 0.0316 µM
  viability, T/C: 97.4%
Second compound 0.0316 µM, first compound 0.1 µM
  viability, T/C: 79.1%
Second compound 0.0316 µM, first compound 0.316 µM
  viability, T/C: 69.6%
Second compound 0.0316 µM, first compound 1 µM
  viability, T/C: 65.3%
Second compound 0.0316 µM, first compound 3.16 µM
  viability, T/C: 60.8%
Second compound 0.0316 µM, first compound 10 µM
  viability, T/C: 58.2%
Second compound 0.1 µM, first compound 0.0316 µM
  viability, T/C: 94.9%
Second compound 0.1 µM, first compound 0.1 µM
  viability, T/C: 84.9%
Second compound 0.1 µM, first compound 0.316 µM
  viability, T/C: 74.9%
Second compound 0.1 µM, first compound 1 µM
  viability, T/C: 60.1%
Second compound 0.1 µM, first compound 3.16 µM
  viability, T/C: 71.6%
Second compound 0.1 µM, first compound 10 µM
  viability, T/C: 54.2%
Second compound 0.316 µM, first compound 0.0316 µM
  viability, T/C: 100%
Second compound 0.316 µM, first compound 0.1 µM
  viability, T/C: 88.5%
Second compound 0.316 µM, first compound 0.316 µM
  viability, T/C: 87.8%
Second compound 0.316 µM, first compound 1 µM
  viability, T/C: 68%
Second compound 0.316 µM, first compound 3.16 µM
  viability, T/C: 67.3%
Second compound 0.316 µM, first compound 10 µM
  viability, T/C: 60.3%
Second compound 1 µM, first compound 0.0316 µM
  viability, T/C: 91.3%
Second compound 1 µM, first compound 0.1 µM
  viability, T/C: 78.1%
Second compound 1 µM, first compound 0.316 µM
  viability, T/C: 80.1%
Second compound 1 µM, first compound 1 µM
  viability, T/C: 87%
Second compound 1 µM, first compound 3.16 µM
  viability, T/C: 65.2%
Second compound 1 µM, first compound 10 µM
  viability, T/C: 56.9%
Second compound 3.16 µM, first compound 0.0316 µM
  viability, T/C: 94.6%
Second compound 3.16 µM, first compound 0.1 µM
  viability, T/C: 77.8%
Second compound 3.16 µM, first compound 0.316 µM
  viability, T/C: 79.5%
Second compound 3.16 µM, first compound 1 µM
  viability, T/C: 67.7%
Second compound 3.16 µM, first compound 3.16 µM
  viability, T/C: 60.4%
Second compound 3.16 µM, first compound 10 µM
  viability, T/C: 54.3%
Second compound 10 µM, first compound 0.0316 µM
  viability, T/C: 96.9%
Second compound 10 µM, first compound 0.1 µM
  viability, T/C: 91.9%
Second compound 10 µM, first compound 0.316 µM
  viability, T/C: 79.1%
Second compound 10 µM, first compound 1 µM
  viability, T/C: 64%
Second compound 10 µM, first compound 3.16 µM
  viability, T/C: 70.2%
Second compound 10 µM, first compound 10 µM
  viability, T/C: 55.7%

## C=CCn1c(=O)c2cnc(Nc3ccc(N4CCN(C)CC4)cc3)nc2n1-c1cccc(C(C)(C)O)n1
Compound 0.00316 µM
  viability, T/C: 98.5% and 82.4% and 90.4%
Compound 0.01 µM
  viability, T/C: 86.6% and 97.5% and 99.7%
Compound 0.0316 µM
  viability, T/C: 102% and 93.3% and 99.6%
Compound 0.1 µM
  viability, T/C: 127% and 114% and 84.3%
Compound 0.316 µM
  viability, T/C: 83% and 93.8% and 89.9%
Compound 1 µM
  viability, T/C: 70% and 70.6% and 63.8%
Curve of compound
  IC50: > 1 µM

## O=C(Nc1ccc(O)c(NS(=O)(=O)c2ccc(F)cc2)c1)c1ccc(-c2ccccc2)cc1
Compound 0.0316 µM
  viability, T/C: 119% and 92.8% and 88.2%
Compound 0.1 µM
  viability, T/C: 112% and 97.5% and 96.2%
Compound 0.316 µM
  viability, T/C: 102% and 96.6% and 99.1%
Compound 1 µM
  viability, T/C: 123% and 103% and 118%
Compound 3.16 µM
  viability, T/C: 153% and 112% and 122%
Compound 10 µM
  viability, T/C: 114% and 96.1% and 113%
Curve of compound
  IC50: > 10 µM

## CC1COCCN1c1cc(C2(O)CC3CCC(C2)O3)c2cnn(-c3ccn[nH]3)c2n1 (configuration not stated)
Compound 0.0316 µM
  viability, T/C: 74.1% and 100% and 73.6%
Compound 0.1 µM
  viability, T/C: 84.5% and 71.6% and 81%
Compound 0.316 µM
  viability, T/C: 62.8% and 65.5% and 67.8%
Compound 1 µM
  viability, T/C: 43.3% and 50.5% and 46.8%
Compound 3.16 µM
  viability, T/C: 40.4% and 43.8% and 42.7%
Compound 10 µM
  viability, T/C: 27.9% and 29.2% and 30.2%
Curve of compound
  IC50: 0.708 µM and 0.992 µM and 0.944 µM

## Cc1cccc(N(C)C(=O)C2C(O)CCN2c2nc(C)cc(C(F)(F)F)c2C#N)c1 (configuration not stated)
Compound alone, run of 10/31/2023
  IC50: > 10 µM
Compound alone, run of 11/06/2023
  IC50: > 10 µM

## CCc1c2c(nc3ccc(O)cc13)-c1cc3c(c(=O)n1C2)COC(=O)[C@]3(O)CC
Compound 0.00316 µM
  viability, T/C: 84.2% and 91.3% and 93.2%
Compound 0.01 µM
  viability, T/C: 77.4% and 78.1% and 89.5%
Compound 0.0316 µM
  viability, T/C: 71.7% and 92.1% and 88.6%
Compound 0.1 µM
  viability, T/C: 87% (2×) and 97.7%
Compound 0.316 µM
  viability, T/C: 95.2% and 104% and 109%
Compound 1 µM
  viability, T/C: 71.8% (2×) and 91.9%
Curve of compound
  IC50: > 1 µM
